The values that follow come from US9499538B2, “Estrogen receptor modulators and uses thereof” (Seragon Pharmaceuticals, Inc., priority 2012, dated 2016).

The test system of one test is MCF-7 cells. Nature of the test: Breast Cancer Cell Viability Assays (MCF-7, CellTiter-Glo). It counts as cell-based. The following applies: 5 days' compound exposure; for IC50: Homo sapiens, MCF7, 120 h. The essentials: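 MCF-7 cells (320/well, RPMI with 10% FBS) exposed for 5 days to an eleven-point semilog series, 0.3–0.000003 μM final. Viability read by CellTiter-Glo luminescence, expressed as background-corrected percent of untreated cells.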
On the technique in general: ATP-based viability assays read luminescence as a measure of living cells.

For another test, the target named is T1, ER-α in MCF-7 cells (Homo sapiens, UniProt P03372).
T1 construct: endogenous in cells; host or cells: MCF-7
T1 sequence (P03372 1-595): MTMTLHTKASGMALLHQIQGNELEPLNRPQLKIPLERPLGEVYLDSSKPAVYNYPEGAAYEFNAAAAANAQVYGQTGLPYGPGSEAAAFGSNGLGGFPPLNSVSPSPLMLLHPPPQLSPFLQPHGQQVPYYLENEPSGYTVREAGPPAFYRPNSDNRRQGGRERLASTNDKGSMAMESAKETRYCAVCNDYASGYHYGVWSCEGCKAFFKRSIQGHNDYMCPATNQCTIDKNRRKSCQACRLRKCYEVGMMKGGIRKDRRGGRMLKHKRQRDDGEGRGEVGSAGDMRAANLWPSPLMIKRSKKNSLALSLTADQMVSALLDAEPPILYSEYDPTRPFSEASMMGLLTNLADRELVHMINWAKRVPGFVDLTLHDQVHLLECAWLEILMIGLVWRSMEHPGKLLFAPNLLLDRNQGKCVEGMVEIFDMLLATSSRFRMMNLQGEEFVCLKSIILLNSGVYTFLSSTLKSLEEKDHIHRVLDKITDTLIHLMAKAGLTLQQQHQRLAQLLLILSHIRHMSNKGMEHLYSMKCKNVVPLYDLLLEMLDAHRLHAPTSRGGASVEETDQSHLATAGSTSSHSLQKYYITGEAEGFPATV
Kind of test: Breast Cancer Cell ER-α In Cell Western Assay (SP1). The following applies: 4 or 24 hr post compound addition; for Emax: MCF7, SP1 antibody, read-out: ER-α In Cell Western Assay (SP1) Max Response; for DC50: SP1 antibody, read-out: ER-α In Cell Western Assay (SP1) IC50. It counts as cell-based. Summed up:
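MCF-7 cells in charcoal-stripped FBS medium, treated with 11-point semilog dilutions (0.3–0.000003 μM final) for 4 or 24 h. Fixed cells immunostained with SP1 antibody (800 nm) and DRAQ5 DNA (700 nm); ER/DNA ratio expressed as % of untreated cells.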

The term IC50 denotes the concentration needed to halve the response being measured. Read a low IC50 as higher potency.

Some results are limits rather than exact numbers.

In the case of `O=C(/C=C/c1ccc(/C(=C(\c2ccccc2)C2CCC2)c2cccc3[nH]ncc23)cc1)NCCO` [Example 183, (E)-3-(4-((E)-2-Cyclobutyl-1-(1H-indazol-4-yl)-2-phenylvinyl)phenyl)-N-(2-hydroxyethyl)acrylamide], in the test on MCF-7 cells, the “MCF7 Viability Assay Max Response” value was “++ (++ = a single % value ≧ 40%)” and the IC50 is ≤ 100 nM. In addition, on ER-α in MCF-7 cells, the Emax is ≥ 40% and the DC50 was ≤ 100 nM.
For the compound `CC/C(=C(/c1ccc(/C=C/C(=O)NC)cc1)c1ccc2scnc2c1)c1ccc(F)cc1Cl` [Example 184, (E)-3-(4-((E)-1-(Benzo[d]thiazol-5-yl)-2-(2-chloro-4-fluorophenyl)but-1-en-1-yl)phenyl)-N-methylacrylamid], in the test on MCF-7 cells, the “MCF7 Viability Assay Max Response” value was “++ (++ = a single % value ≧ 40%)” and the IC50 was ≤ 100 nM. Also, on ER-α in MCF-7 cells, the Emax is ≥ 40% and the DC50 was ≤ 100 nM.
`CC/C(=C(/c1ccc(/C=C/C(=O)Nc2nccs2)cc1)c1ccc2[nH]ncc2c1)c1ccc(F)cc1Cl` [Example 185, (E)-3-(4-((E)-2-(2-Chloro-4-fluorophenyl)-1-(1H-indazol-5-yl)but-1-en-1-yl)phenyl)-N-(thiazol-2-yl)acrylamide]: in the test on MCF-7 cells, the “MCF7 Viability Assay Max Response” value is reported as “++ (++ = a single % value ≧ 40%)” and the 50% inhibitory concentration (IC50) is ≤ 100 nM. Moreover, at ER-α in MCF-7 cells, the Emax was ≥ 40% and the DC50 was ≤ 100 nM.
Consider `O=C(/C=C/c1ccc(/C(=C(\c2ccc(F)cc2Cl)C2CCC2)c2ccc3[nH]nc(F)c3c2)cc1)Nc1nccs1` [Example 186, (E)-3-(4-((E)-2-(2-Chloro-4-fluorophenyl)-2-cyclobutyl-1-(3-fluoro-1H-indazol-5-yl)vinyl)phenyl)-N-(thiazol-2-yl)acrylamide], for which, in the test on MCF-7 cells, the “MCF7 Viability Assay Max Response” value is listed as “++ (++ = a single % value ≧ 40%)” and the IC50 is ≤ 100 nM. In addition, at ER-α in MCF-7 cells, the Emax was ≥ 40% and the DC50 was ≤ 100 nM.
On to `O=C(/C=C/c1ccc(/C(=C(\c2ccc(F)cc2Cl)C2CCC2)c2ccc3nccn3c2)cc1)NCCO` [Example 187, (E)-3-(4-((E)-2-(2-Chloro-4-fluorophenyl)-2-cyclobutyl-1-(imidazo[1,2-a]pyridin-6-yl)vinyl)phenyl)-N-(2-hydroxyethyl)acrylamide], for which, in the test with MCF-7 cells, the “MCF7 Viability Assay Max Response” value is on record as “++ (++ = a single % value ≧ 40%)” and the IC50 was ≤ 100 nM. On ER-α in MCF-7 cells, the Emax was ≥ 40% and the DC50 was ≤ 100 nM.
With `O=C(/C=C/c1ccc(/C(=C(\c2ccccc2)C2CCC2)c2ccc3[nH]nc(F)c3c2)cc1)NCC(O)CO` (centres unmarked) [Example 188, (E)-3-(4-((E)-2-Cyclobutyl-1-(3-fluoro-1H-indazol-5-yl)-2-phenylvinyl)phenyl)-N-(2,3-dihydroxypropyl)acrylamide], in the test on MCF-7 cells, the “MCF7 Viability Assay Max Response” value is recorded as “++ (++ = a single % value ≧ 40%)” and the IC50 is ≤ 100 nM. Moreover, on ER-α in MCF-7 cells, the Emax was ≥ 40% and the DC50 is ≤ 100 nM.
Consider `O=C(/C=C/c1ccc(/C(=C(\c2ccccc2)C2CCC2)c2ccc3[nH]nc(F)c3c2)cc1)NC(CO)CO` [Example 189, (E)-3-(4-((E)-2-Cyclobutyl-1-(3-fluoro-1H-indazol-5-yl)-2-phenylvinyl)phenyl)-N-(1,3-dihydroxypropan-2-yl)acrylamide], for which, in the test on MCF-7 cells, the “MCF7 Viability Assay Max Response” value is on record as “++ (++ = a single % value ≧ 40%)” and the IC50 was ≤ 100 nM. On ER-α in MCF-7 cells, the Emax was ≥ 40% and the DC50 is ≤ 100 nM.
Take `CNC(=O)/C=C/c1ccc(/C(=C(\c2ccccc2)C2CCC2)c2ccc3[nH]nc(F)c3c2)cc1` [Example 190, (E)-3-(4-((E)-2-Cyclobutyl-1-(3-fluoro-1H-indazol-5-yl)-2-phenylvinyl)phenyl)-N-methylacrylamide]: in the test on MCF-7 cells, the “MCF7 Viability Assay Max Response” value was “++ (++ = a single % value ≧ 40%)” and the IC50 is ≤ 100 nM. For the same compound, at ER-α in MCF-7 cells, the Emax is ≥ 40% and the DC50 was ≤ 100 nM.
